Values quoted from earlier work, collected in patent US20200080027A1, “ADVANCED NOVEL ECO-FRIENDLY COMPOSITIONS” (priority 2015, published 2020).

Experiments:
[1] = system: humans
[2] = system: normal volunteers; settings: 15 g/day for 10 days, 18 normal volunteers
[3] = system: human blood cells
[4] = system: rats
[5] = system: human; settings: human consumption
[6] = skin contact

## O=C([O-])c1ccccc1.[Na+] [Sodium benzoate]
[1]
  doses with no adverse effects in humans: 647-825 mg/kg of body weight per day

## Xanthan gum
[2]
  laxative effect: highly efficient laxative

## Span 80
other
  water solubility: insoluble in water

## C/C=C/C=C/C(=O)[O-].[K+] [Potassium sorbate]
At 20° C.
  solubility in water: 58.2%
[3]
  genotoxicity / mutagenicity in vitro: both genotoxic and mutagenic
[4]
  carcinogenic effects: not been found to have any carcinogenic effects
[5]
  maximum acceptable daily intake: 25 mg/kg

## [K+].[OH-] [Potassium hydroxide]
[6]
  concentration of solution that is corrosive: higher than 2%
